Measured values taken from PubChem BioAssay AID2740 (NMMLSC, 2010).
Activity calls are given as the source filed them.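 How the source made its calls: active means compounds whose fitted half-maximal concentration for changing the GFP signal is at or below a set limit; inactive means the rest.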

test system: not listed separately; experiment: TOR pathway RPL19A-GFP modulators, concentration series – cell-based, S. cerevisiae, flow cytometry, MLPCN hits, dose response (AID 2740);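 on GFP fluorescence, lower = active: background is signal of the same compound in parental non-GFP s288c yeast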; conditions: S. cerevisiae RPL19A-GFP strain, flow cytometry fluorescence, 3 h; at 33 µM (top of the series)

Row | Compound | GFP fluorescence, lower = active (kMESF (background-subtracted))
1 | O=C(OCC(=O)N1CCN(C(=O)c2ccco2)CC1)c1cc(-c2ccc(F)cc2)nc2ccccc12 | 32.3 (inactive)

test system: S. cerevisiae RPL19A-GFP strain, flow cytometry fluorescence, 3 h; experiment: as above; conditions: not given

Row | Compound | EC50
2 | Cn1ncc2c(O/N=C(\N)c3ccc(C(C)(C)C)cc3)ncnc21 | 13 µM
3 | O=C1c2sc3nc4ccccc4n3c2C(=O)N1c1ccccc1Cl | 19 µM
4 | Cc1ccc(C(=O)O)cc1N=Cc1cc(Br)cc(Br)c1O | 11.8 µM
5 | O=[N+]([O-])c1cc(Cl)cc(/C=N\Nc2ccccn2)c1O | 8.02 µM
6 | Cc1nn2c(-c3ccncc3)nnc2c2ccccc12 | 3.29 µM
7 | CCc1ccc2c(c1)/C(=C/C(=O)c1cccs1)C(=O)N2 | 4.42 µM
8 | O=C1C=CC(=O)N1c1ccc(O)cc1 | 12.6 µM
9 | C[C@@H]1C[C@@H]([C@H](O)CC2CC(=O)NC(=O)C2)C(=O)[C@@H](C)C1 | 0.644 µM
10 | CC(C)(C)C(=O)NC(=S)NNC(=O)c1sc2ccccc2c1Cl | 12.3 µM
11 | CNc1nc(N)c([N+](=O)[O-])c(Nc2cccc(F)c2)n1 | 7.46 µM
12 | Cc1ccc(NN2C(=O)C=C(c3ccc(Cl)cc3)C2=O)cc1 | 1.28 µM
13 | O=C1NC(=O)N(Cc2ccco2)C(=O)/C1=C/c1ccc(-c2cccc([N+](=O)[O-])c2)o1 | 11.2 µM
14 | Cc1ccc(S(=O)(=O)ON2C(=O)c3ccccc3C2=O)c(C)c1 | 14 µM
15 | CC(C)(C)C(=O)C(Cl)C(=O)Nc1ccccc1 (centres undefined) | 11.2 µM
16 | CC(C)(C)c1ccc(NC(=O)COC(=O)c2ccc([N+](=O)[O-])s2)cc1 | 9.71 µM
17 | O=[N+]([O-])c1cc(S(=O)(=O)C(F)(F)F)ccc1Sc1nc2ccccc2s1 | 14.4 µM
18 | Cc1ccc2nc(Cl)c3nnnn3c2c1 | 5.33 µM
19 | N/C(Cc1ccc(Cl)cc1)=N\OC(=O)c1ccccc1 | 8.02 µM
20 | O=C1C=C(c2ccccc2)C(=O)N1Nc1ccccc1 | 3.91 µM
21 | COc1ccc(N2C(=O)/C(=C/c3cccs3)C(=O)NC2=S)cc1 | 7.77 µM
22 | C#CCOCCOCCOCCNc1nc(N2CCN(C(=O)CCCCCCCCCCNC(=O)[C@@H](CCC(=O)O)n3cc(CCCCCN)nn3)CC2)nc(N2CCN(C(=O)CCCCCCCCCCNC(=O)[C@H](CCCCN)n3cc(C[C@@H](C)CC)nn3)CC2)n1 | 11 µM
23 | COc1ccc2c(c1)S/C(=C\C(=O)c1ccncc1)N2C | 3.97 µM
24 | CCOc1ccc(N2C(=O)/C(=C\c3cccs3)C(=O)NC2=S)cc1 | 5.66 µM
25 | COc1cc(/C=C/[N+](=O)[O-])ccc1O | 32.1 µM
26 | CCOC(=O)/C(=C\c1cn(C)c2ccccc12)[N+](=O)[O-] | 4.95 µM
27 | N/C(Cc1ccc(Cl)cc1Cl)=N\OC(=O)c1cccs1 | 12.9 µM
28 | CC1(C)C[C@H]2C=C(C=O)[C@]3(C=O)C[C@]3(C)[C@H]2C1 | 3.62 µM

Row | Compound | EC50
29 | O=C(/C=C/c1cccc([N+](=O)[O-])c1)c1ccc([N+](=O)[O-])o1 | 3.5 µM
30 | C#CCOCCOCCOCCNc1nc(N2CCN(C(=O)CCCCCCCCCCNC(=O)[C@H](CCCCN)n3cc(C)nn3)CC2)nc(N2CCN(C(=O)CCCCCCCCCCNC(=O)[C@H](CCCN=C(N)N)n3cc(C[C@@H](C)CC)nn3)CC2)n1 | 10.7 µM
31 | Cc1ccc(/C=C/C(=O)c2ccccc(=O)c2O)c(C)c1 | 11.3 µM
32 | CCN1/C(=C/C(C)=C/c2sc3ccccc3[n+]2CC)Sc2ccccc21 | 11.3 µM
33 | Cc1ccc(NC(=O)c2cc(N3C(=O)C=CC3=O)ccc2N2CCOCC2)cc1Cl | 4.02 µM
34 | O=C1NC(=O)C(=Cc2ccc(-c3ccc(Cl)cc3)o2)C(=O)N1 | 6.81 µM
35 | O=C(C#Cc1ccccc1)c1ccco1 | 25.6 µM
36 | O=C1C=CC(=O)N1c1ccc(Sc2ccc([N+](=O)[O-])cc2)cc1 | 10.2 µM
37 | C#CCOCCOCCOCCNc1nc(N2CCN(C(=O)CCCCCCCCCCNC(=O)[C@H](CCCCN)n3cc(CCO)nn3)CC2)nc(N2CCN(C(=O)CCCCCCCCCCNC(=O)[C@H](CCCCN)n3cc(C[C@@H](C)CC)nn3)CC2)n1 | 10.1 µM
38 | CCOC(=O)c1c(C)oc2c1c(C(c1ccncc1)N1CCOCC1)c(O)c1ccccc12 (centres undefined) | 11.8 µM
39 | Nc1ccc(Br)c2c1C(=O)c1ccccc1C2=O | 3.16 µM
40 | Cc1ccc(/C=C2/C(=O)ON=C2c2ccccc2)o1 | 11.9 µM
41 | COc1cccc2cc(-c3nc4ccccc4o3)c(=O)oc12 | 1.11 µM
42 | O=C(OCC(=O)N1CCN(C(=O)c2ccco2)CC1)c1cc(-c2ccc(F)cc2)nc2ccccc12 | 5.05 µM
43 | Cc1ccc(S(=O)(=O)c2ccc([N+](=O)[O-])cn2)cc1 | 12.9 µM
44 | O=C(CSC1=NS(=O)(=O)c2ccccc21)Nc1ccccc1 | 5.5 µM
45 | CSc1nnc2c3cc(F)ccc3n(C)c2n1 | 1.19 µM
46 | CNC(CC(=O)c1ccc([N+](=O)[O-])cc1)C(Cl)(Cl)Cl (centres undefined) | 6.58 µM
47 | CCCCCCCCn1sccc1=O | 11.9 µM
48 | C/C(=N\NC(=O)c1cccc(Br)c1)c1ccccn1 | 20.8 µM
49 | O=C1C2C3C=CC(CO)(O3)C2C(=O)N1c1ccc(-c2ccccc2)cc1 (centres undefined) | 10.2 µM
50 | CCOC(=O)c1c(C)oc2c1c(C(c1cccnc1)N1CCOCC1)c(O)c1ccccc12 (centres undefined) | 13.7 µM
51 | O=C(C#Cc1ccccc1)c1cccc([N+](=O)[O-])c1 | 7.47 µM
52 | CC(=O)Nc1ncnc2c1c(-c1ccc(Cl)cc1)nn2C(C)(C)C | 6.07 µM
53 | COc1ccc([N+](=O)[O-])c(S(=O)(=O)c2ccc(Cl)cc2)n1 | 13.1 µM
54 | O=[N+]([O-])c1ccc(S(=O)(=O)c2cccc(C(F)(F)F)c2)nc1 | 11.8 µM
